Three compounds from patent publication US20240018121A1, “NOVEL HETEROAROMATIC COMPOUNDS EXHIBITING ANTIFUNGAL ACTIVITY AND THEIR METHOD OF USE” (FOX CHASE CHEMCIAL DIVERSITY CENTER, INC., priority 2020, published 2024) can be followed below.

Structures can show the parent of a compound that is named as a salt.

Common to all, as to type: cell-based
In assay [1] the test system is Aspergillus flavus AFL1 (ATCC MYA-3631). As to the kind of experiment: Fungal MIC Protocol, Aspergillus flavus. The following applies: for MIC: Aspergillus flavus, 48 h, read-out: MIC Aspergillus flavus 3631. The method, boiled down:
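The MIC against Aspergillus flavus was measured by broth microdilution in RPMI/MOPS medium at pH 7.0. Compounds were diluted to 200 ug/mL from DMSO stocks, then ten serial dilutions were tested in duplicate in round bottom 96-well plates. Spores adjusted to a final OD530 of 0.002 were added, with no-cell and no-compound control wells, and plates were incubated 48 hours at 35° C.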

Assay [2] relates to Aspergillus fumigatus T33439 (ATCC MYA-3626). As to the kind of experiment: Fungal MIC Protocol, Aspergillus fumigatus. The following applies: for MIC: Aspergillus fumigatus, 48 h, read-out: MIC Aspergillus fumigatus 3626. The method, boiled down: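 This broth microdilution MIC test used RPMI/MOPS medium at pH 7.0 with glucose. Compounds were diluted from DMSO stock to 200 ug/mL and serially diluted ten times in 96-well round bottom plates. Equal volumes of compound and Aspergillus spore suspension at OD530 0.002 were combined, with controls of compound without cells and spores without compound. Plates were bagged and incubated at 35° C. for 48 hours.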

Assay [3] relates to Fusarium falciforme FS1 (ATCC MYA-3636). As to the kind of experiment: Fungal MIC Protocol, Fusarium falciforme. The following applies: for MIC: Fusarium falciforme, 48 h, read-out: MIC Fusarium falciforme 3636. The method, boiled down:
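MIC against Fusarium falciforme was determined by broth microdilution in RPMI/MOPS medium containing glucose. Compounds started at 200 ug/mL and were serially diluted ten times, then combined with harvested spores adjusted to an OD530 of 0.005. Controls held compound without cells and spores without compound. Plates were bagged and incubated at 35° C. for 48 hours.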

For assay [4], the system named is Fusarium solani (ATCC 58877). As to the kind of experiment: Fungal MIC Protocol, Fusarium solani. The following applies: for MIC: Fusarium solani, ATCC58877, 48 h, read-out: MIC Fusarium solani 58877. The method, boiled down:
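Broth microdilution MIC test against Fusarium solani in RPMI/MOPS medium at pH 7.0. Compounds from DMSO stock were diluted to 200 ug/mL, then serially diluted ten times and plated in duplicate at 50 μl per well. 50 ul of spore suspension at OD530 0.005 was added. Controls had compound without cells and spores without compound. Plates were mixed gently, bagged, and incubated at 35° C. for 48 hours.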

Assay [5] has as its system Mucor circinelloides 1463(62) (ATCC 26759). Put plainly: Fungal MIC Protocol, Mucor circinelloides (MIC-50). The following applies: for MIC50: Mucor circinelloides, ATCC26759, 48 h, read-out: MIC-50 Mucorales circinelloides 26579. A digest of the protocol:
(§1)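 MIC-type endpoint: >50% growth inhibition, judged by eye with an inverted mirror. Spores in RPMI/MOPS (pH 7.0, ~2×10^4 cfu/mL) were incubated 48 hours at 35° C with duplicate serial compound dilutions.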

Assay [6] relates to Mucor ramosissimus 057718 (ATCC 90286). As to the kind of experiment: Fungal MIC Protocol, Mucor ramosissimus (MIC-50). The following applies: for MIC50: Mucor ramosissimus, ATCC90286, 48 h, read-out: MIC-50 Mucorales ramosissimus 90286. A digest of the protocol:
as §1

Another assay relates to Candida albicans GDH2346. Put plainly: Candida Minimal Inhibitory Concentration (MIC). The following applies: for MIC50: Candida albicans, GDH2346, 48 h, read-out: MIC-50 Candida albicans GDH2346. The method, boiled down: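 Twofold serial dilutions from 200 μg/mL in RPMI 1640/MOPS with glucose, pH 7.0, tested in duplicate against yeast from an OD600 1.0 suspension diluted 1:1000. Incubated at 35° C; OD600 read at 24 and 48 h.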

Setting [7] is: 100% growth inhibition at 48 hours.
[8] abbreviates: 50% growth inhibition at 48 hours.

In general, MIC refers to the lowest concentration found to suppress growth.

Take “4,4-(4,4-(4-Cyclohexyl-4H-1,2,4-triazole-3,5-diyl)bis(4,1-phenylene))bis (5,6-dihydropyridine-1(2H)-carboximidamide) [Example 56]”: the “MIC Aspergillus flavus 3631” value in assay [1] (setting [7]) was 0.39 µg·mL. Moreover, the “MIC Aspergillus fumigatus 3626” value in assay [2] (setting [7]) turned out to be 0.39 µg·mL. In assay [3] (setting [7]), the “MIC Fusarium falciforme 3636” value is less than 0.1 µg·mL. In addition, the “MIC Fusarium solani 58877” value in assay [4] (setting [7]) was less than 0.1 µg·mL. For the same compound, the “MIC-50 Mucorales circinelloides 26579” value in assay [5] (setting [8]) was 0.39 µg/mL. The “MIC-50 Mucorales ramosissimus 90286” value in assay [6] (setting [8]) stood at 1.56 µg/mL. Besides, the “MIC-50 Candida albicans GDH2346” value against Candida albicans GDH2346 (setting [8]) amounted to 0.78 µg/mL.

Consider `COCCn1c(-c2ccc(C3=CCN(C(=N)N)CC3)cc2F)nnc1-c1ccc(C2=CCN(C(=N)N)CC2)cc1F` [Example 68, 4-(4-{5-[4-(1-carbamimidoyl-1,2,3,6-tetrahydropyridin-4-yl)-2-fluorophenyl]-4-(2-methoxyethyl)-4H-1,2,4-triazol-3-yl}-3-fluorophenyl)-1,2,3,6-tetrahydropyridine-1-carboximidamide trifluoroacetate], for which the MIC is less than 0.1 µg/mL in assay [1], 0.1 µg/mL in assay [2], less than 0.1 µg/mL in assay [3] and less than 0.1 µg/mL in assay [4]. Also, the MIC50 in assay [5] is 0.39 µg/mL; in assay [6], 0.78 µg/mL; in the assay with Candida albicans GDH2346, 0.2 µg/mL.

Take `N=C(N)N1CC=C(c2ccc(-c3nnc(-c4ccc(C5=CCN(C(=N)N)CC5)cc4F)n3CC(F)(F)F)c(F)c2)CC1` [Example 84, 4-(4-{5-[4-(1-carbamimidoyl-1,2,3,6-tetrahydropyridin-4-yl)-2-fluorophenyl]-4-(2,2,2-trifluoroethyl)-4H-1,2,4-triazol-3-yl}-3-fluorophenyl)-1,2,3,6-tetrahydropyridine-1-carboximidamide hydrochloride]: the MIC came out at 0.39 µg/mL in assay [1], 0.2 µg/mL in assay [2], 0.1 µg/mL in assay [3] and 0.05 µg/mL in assay [4]. Besides, the MIC50 in assay [5] is 0.39 µg/mL; in assay [6] it was 0.78 µg/mL; in the assay with Candida albicans GDH2346 it was 0.2 µg/mL.
